For assay [1], the system named is E. coli 94393. Briefly: microbe, parasite or virus in culture. It is filed as cell-based, Escherichia coli. To be noted: Escherichia coli, 18 h; E. coli 94393 (mcr-1 +); read-out: MICs of various antibiotics. How it is done: (§1) The in vitro antibacterial activity of the UTBLPs was assessed against wild-type and clinically isolated bacterial strains. To obtain the MIC of the compounds, the microbroth dilution susceptibility assay was performed according to the Clinical and Laboratory Standards Institute (CLSI, Wayne, PA, USA) guidelines and as previously described. Briefly, the compounds at varying concentrations were incubated with bacterial inoculum (5 × 10^5 CFU/mL final concentration) at 37 °C for 18 h. Growth in the form of turbidity was confirmed using an EMax Plus microplate reader (Molecular Devices, San Jose, CA, USA) at 590 nm.

Assay [2] deals with E. coli 94474. Briefly: microbe, parasite or virus in culture. It is filed as cell-based, Escherichia coli. The settings on record: Escherichia coli, 18 h; E. coli 94474 (mcr-1 +); read-out: MICs of various antibiotics. As for the experimental part: as §1
Assay [3] relates to A. baumannii AB027. Briefly: microbe, parasite or virus in culture. It is filed as cell-based, Acinetobacter baumannii. To be noted: Acinetobacter baumannii, 18 h; A. baumannii AB027; read-out: MICs of various antibiotics. How it is done:
as §1

In assay [4] the test system is P. aeruginosa PA259-96196. As to the kind of experiment: microbe, parasite or virus in culture. The settings on record: Pseudomonas aeruginosa, PA25996196, 18 h; P. aeruginosa 259-96196; read-out: MICs of various antibiotics. It is filed as cell-based, Pseudomonas aeruginosa. As for the experimental part: as §1
The test system of assay [5] is P. aeruginosa PA262-101856. Briefly: microbe, parasite or virus in culture. It is filed as cell-based, Pseudomonas aeruginosa. To be noted: Pseudomonas aeruginosa, PA262101856, 18 h; P. aeruginosa 262-101856; read-out: MICs of various antibiotics. As for the experimental part:
as §1

The subject of assay [6] is K. pneumoniae 113250. As to the kind of experiment: microbe, parasite or virus in culture. The settings on record: Klebsiella pneumoniae, 18 h; K. pneumoniae 113250; read-out: MICs of various antibiotics. It is filed as cell-based, Klebsiella pneumoniae. As for the experimental part:
as §1

The test system of assay [7] is E. cloacae 118564. It is filed as cell-based, Enterobacter cloacae. How it is done:
(§2) The synergy of the UTBLPs with various antibiotics was assessed using checkerboard assay as previously described. Briefly, the combination of antibiotic and OMP at varying concentrations were incubated with bacterial inoculum (5 × 10^5 CFU/mL final concentration) at 37 °C for 18 h. Growth in the form of turbidity was confirmed using an EMax Plus microplate reader (Molecular Devices, Union City, CA, USA) at 590 nm. Fractional inhibitory concentration index (FICI) was used to evaluate the interaction between the antibiotic and the OMP. FICI is the sum of the FIC of the antibiotic and the FIC of the OMP. The FIC value is calculated by dividing the MIC of the agents in combination by the MIC of the agent alone. FICI ≤ 0.5 is synergistic, 0.5 < x ≤ 4 is additive, and >4 is antagonistic.

Assay [8] deals with E. coli ATCC 25922. It is filed as cell-based, Escherichia coli. As for the experimental part: as §2
The test system of assay [9] is E. coli 94393. The assay is classed as cell-based, Escherichia coli. How it is done:
as §2

The test system of assay [10] is E. coli 94474. The assay is classed as cell-based, Escherichia coli. How it is done:
as §2

The subject of assay [11] is P. aeruginosa PA259-96196. It is filed as cell-based, Pseudomonas aeruginosa. As for the experimental part: as §2
Assay [12] deals with P. aeruginosa PAO1. It is filed as cell-based, Pseudomonas aeruginosa. How it is done: as §2
For assay [13], the system named is P. aeruginosa PA262-101856. It is filed as cell-based, Pseudomonas aeruginosa. As for the experimental part:
as §2

In assay [14] the test system is A. baumannii AB027. It is filed as cell-based, Acinetobacter baumannii. As for the experimental part:
as §2

For assay [15], the system named is A. baumannii 92247. It is filed as cell-based, Acinetobacter baumannii. As for the experimental part: as §2
The subject of assay [16] is A. baumannii ATCC 17978. The assay is classed as cell-based, Acinetobacter baumannii. As for the experimental part: as §2
Assay [17] relates to K. pneumoniae 113250. The assay is classed as cell-based, Klebsiella pneumoniae. To be noted: rifampicin alone. As for the experimental part: as §2

These results are taken from paper PMC8963254, “Effects of Lysine N-ζ-Methylation in Ultrashort Tetrabasic Lipopeptides (UTBLPs) on the Potentiation of Rifampicin, Novobiocin, and Niclosamide in Gram-Negative Bacteria” (Antibiotics, 2022).

In brackets after ≈: the same amount, converted by molar mass. Several values for one entry are separate records, joined by “and”; a condition that tells them apart may be missing. Equal values may be shown once. Read-outs that look alike come from different tables or passages of the source.

For the compound `C[C@@H](O)[C@H]1C(=O)N2C(C(=O)O)=C(SCCN=CN)C[C@H]12` [IMI, imipenem], the MIC was 0.25 µg/mL (≈ 0.835 µM) in assay [1]; 0.25 µg/mL (≈ 0.835 µM) in [2]; 32 µg/mL (≈ 107 µM) in assay [3]; 32 µg/mL (≈ 107 µM) in assay [4]; 32 µg/mL (≈ 107 µM) in assay [5]; 0.25 µg/mL (≈ 0.835 µM) in assay [6].
Take `CO[C@@H]1[C@@H](OC(N)=O)[C@@H](O)[C@H](Oc2ccc3c(O)c(NC(=O)c4ccc(O)c(CC=C(C)C)c4)c(=O)oc3c2C)OC1(C)C` [Novobiocin, novobiocin]: the MICantibiotic in assay [7] (novobiocin alone) is 256 µg/mL; in assay [8] (novobiocin alone) it was 32 µg/mL and 64 µg/mL; in assay [9] (novobiocin alone) it was 128 µg/mL and 64 µg/mL; in assay [10] (novobiocin alone) it was 256 µg/mL and 128 µg/mL; in assay [11] (novobiocin alone) it was 2048 µg/mL and 1024 µg/mL; in assay [12] (novobiocin alone), 512 µg/mL and 1024 µg/mL. The MICantibiotic in assay [13] (novobiocin alone) was 1024 µg/mL and 2048 µg/mL and > 1024 µg/mL; in assay [14] (novobiocin alone), 8 µg/mL and 16 µg/mL; in assay [15] (novobiocin alone), 2 µg/mL and 4 µg/mL.
As to `O=C(Nc1ccc([N+](=O)[O-])cc1Cl)c1cc(Cl)ccc1O` [Niclosamide, niclosamide], the MICantibiotic in [8] (niclosamide alone) is > 128 µg/mL and > 256 µg/mL; in [12] (niclosamide alone), 1024 µg/mL; in [16] (niclosamide alone), 1024 µg/mL and > 1024 µg/mL and 512 µg/mL.
Consider `C[C@H]1COc2c(N3CCN(C)CC3)c(F)cc3c(=O)c(C(=O)O)cn1c23` [LEV, levofloxacin], for which the MIC in assay [1] was found to be 1 µg/mL (≈ 2.77 µM); in assay [2], 32 µg/mL (≈ 88.6 µM); in [3] it was 8 µg/mL (≈ 22.1 µM); in assay [4] it was 256 µg/mL (≈ 708 µM); in assay [5] it was 64 µg/mL (≈ 177 µM); in assay [6], 0.125 µg/mL (≈ 0.346 µM).
Take `C[C@@H](O)[C@H]1C(=O)N2C(C(=O)O)=C(S[C@@H]3CN[C@H](C(=O)Nc4cccc(C(=O)O)c4)C3)[C@H](C)[C@H]12` [ETP, ertapenem]: the MIC is ≤ 0.03 µg/mL in [1]; ≤ 0.03 µg/mL in assay [2]; > 32 µg/mL in [4]; > 32 µg/mL in [5]; ≤ 0.03 µg/mL in assay [6].
As for `CO/N=C(\C(=O)N[C@@H]1C(=O)N2C(C(=O)O)=C(COC(C)=O)CS[C@H]12)c1csc(N)n1` [CTX, cefotaxime], the MIC was > 256 µg/mL in [3], 2050 µg/mL (≈ 4500 µM) in assay [4] and 128 µg/mL (≈ 281 µM) in assay [5].
`C[C@@H](O)[C@H]1C(=O)N2C(C(=O)O)=C(S[C@@H]3CN[C@H](CNS(N)(=O)=O)C3)[C@H](C)[C@H]12` [DOR, doripenem]: the MIC in assay [4] is > 1020 µg/mL; in [5], 16 µg/mL (≈ 38 µM).
For the compound `CN(C)c1cc(CNCC(C)(C)C)c(O)c2c1C[C@H]1C[C@H]3[C@H](N(C)C)C(O)=C(C(N)=O)C(=O)[C@@]3(O)C(O)=C1C2=O` [OMC, omadacycline], the MIC in assay [1] turned out to be 4 µg/mL (≈ 7.19 µM); in [2], 16 µg/mL (≈ 28.7 µM); in assay [3], 1 µg/mL (≈ 1.8 µM); in assay [4], 64 µg/mL (≈ 115 µM); in [5] it was 64 µg/mL (≈ 115 µM); in assay [6], 2 µg/mL (≈ 3.59 µM).
With `CO[C@H]1/C=C/O[C@@]2(C)Oc3c(C)c(O)c4c(O)c(c(/C=N/N5CCN(C)CC5)c(O)c4c3C2=O)NC(=O)/C(C)=C\C=C\[C@H](C)[C@H](O)[C@@H](C)[C@@H](O)[C@@H](C)[C@H](OC(C)=O)[C@@H]1C` [Rifampicin, rifampicin], the MICantibiotic was 8 µg/mL in assay [7] (rifampicin alone); 4 µg/mL and 2 µg/mL in assay [8] (rifampicin alone); 4 µg/mL in assay [9] (rifampicin alone); 4 µg/mL and 8 µg/mL in assay [10] (rifampicin alone); 16 µg/mL in assay [11] (rifampicin alone); 16 µg/mL and 8 µg/mL in assay [12] (rifampicin alone). Further, the MICantibiotic is 512 µg/mL and 1024 µg/mL in assay [13] (rifampicin alone); 1 µg/mL in assay [14] (rifampicin alone); 1 µg/mL and 2 µg/mL in [16] (rifampicin alone); 1 µg/mL and 2 µg/mL in assay [15] (rifampicin alone); 16 µg/mL and 8 µg/mL in [17].
`CO/N=C(\C(=O)N[C@@H]1C(=O)N2C(C(=O)O)=C(CSc3nc(=O)c(=O)[nH]n3C)CS[C@H]12)c1csc(N)n1` [CTR, ceftriaxone]: the MIC is > 64 µg/mL in [4] and 64 µg/mL (≈ 115 µM) in assay [5].
